Assays:
[1] = target: T1, 5-HT1A receptors (Rattus norvegicus, UniProt P19327); experiment: 5-HT1A receptor binding: displacement of [3H]8-hydroxy-2-(dipropylamino)tetralin in rat hippocampal tissue; set-up: species or system male Charles River CD rats; conditions: 0.5 h, 10^-6 M, [3H]-OH-DPAT 2 nM, 25° C., 30 minutes, read-out: % displacement at 10^-6 M, 5-HT1A (column headed Ki (nM) value for 5-HT1A)
T1 construct: Hippocampal tissue from the brains of male Charles River CD rats; from tissue; host or cells: hippocampal tissue from brains of male Charles River CD rats
T1 sequence (P19327 1-422): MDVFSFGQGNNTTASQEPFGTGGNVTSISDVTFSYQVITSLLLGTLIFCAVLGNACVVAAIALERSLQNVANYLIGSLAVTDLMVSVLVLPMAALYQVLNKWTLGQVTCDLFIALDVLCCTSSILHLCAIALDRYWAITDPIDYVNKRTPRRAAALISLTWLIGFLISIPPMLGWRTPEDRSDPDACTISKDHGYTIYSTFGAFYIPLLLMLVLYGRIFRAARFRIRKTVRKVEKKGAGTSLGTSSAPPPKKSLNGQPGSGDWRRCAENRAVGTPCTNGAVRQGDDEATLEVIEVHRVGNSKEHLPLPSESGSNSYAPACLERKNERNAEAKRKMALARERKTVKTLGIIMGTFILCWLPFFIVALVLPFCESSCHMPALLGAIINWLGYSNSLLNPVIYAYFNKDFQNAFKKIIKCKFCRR
Description: Hippocampal tissue from the brains of male Charles River CD rats weighing between 150-250 g were homogenised in ice-cold 50 mM Tris-HCl buffer (pH 7.7) when measured at 25° C., 1:40 w/v) and centrifuged at 30,000 g at 4° C. for 10 minutes. The pellet was rehomogenised in the same buffer, incubated at 37° C. for 10 minutes and centrifuged at 30,000 g at 4° C. for 10 minutes. The final pellet was resuspended in 50 mM Tris-HCl buffer (pH 7.7) containing 4 mM CaCl2, 0.1% L-ascorbic acid and 10 μM pargyline hydrochloride (equivalent to 6.25 mg wet weight of tissue/ml) and used immediately in the binding assay. Aliquots (400 μl; equivalent to 2.5 mg wet weight of tissue/tube) of this suspension were added to tubes containing the ligand (50 μl; 2 nM) and distilled water (50 μl; total binding) or 5-HT (50 μl; […]; non-specific binding) or test compound (50 μl; at a single concentration of 10^-6 M or at 10 concentrations ranging from 10^-11 -10^-3 M). The ligand was [^3 H]8-hydroxy-2-(dipropylamino)tetralin ([^3 H]-OH-DPAT) and the mixture was incubated at 25° C. for 30 minutes before the incubation was terminated by rapid filtration.
The filters were washed with ice-cold Tris-HCl buffer and dried. The filters were punched out into vials, scintillation fluid added and radioactivity determined by liquid scintillation counting. The percentage displacement of specific binding of the tritiated ligand was calculated for the single concentration (10^-6 M) of test compound. Displacement curves were then produced for those compounds which displaced ≥50% of specific binding of the tritiated ligand at 10^-6 M using a range of concentrations of the compound. The concentration which gave 50% inhibition of specific binding (IC50) was obtained from the curve. The inhibition coefficient Ki was then calculated using the formula [formula]
(§1) in which [ligand] is the concentration of the tritiated ligand used and KD is the equilibrium dissociation constant for the ligand.
(§2) The % figures in Table 1 are for % displacement at 10^-6 M.

[2] = test system: D2-like dopamine receptors; experiment: D2-like dopamine receptor binding: displacement of tritiated (S)-sulpiride in rat striatal tissue; set-up: species or system male Charles River CD rats; conditions: tritiated (S)-sulpiride 1 nM, 4° C., 40 minutes
Description: Striatal tissue from the brains of male Charles River CD rats weighing between 140-250 g were homogenised in ice-cold 50 mM Tris-HCl buffer (pH 7.7 when measured at 25° C.) and centrifuged at 40,000 g for 10 minutes. The pellet was resuspended in Tris salts buffer (50 mM Tris-HCl buffer containing 120 mM NaCl, 5 mM KCl, 2 mM CaCl2 and 1 mM MgCl2 with the addition of 6 mM ascorbic acid; pH 7.7 when measured at 25° C.), and again centrifuged at 40,000 g for 10 minutes. The final pellet was stored at -80° C. Before each test the pellet was resuspended in Tris salts buffer (equivalent to 2 mg wet weight of tissue/ml). Aliquots (720 μl; equivalent to 1.44 mg wet weight of tissue/tube) of this suspension were then added to tubes containing the ligand (40 μl; 1 nM) and Tris salts buffer (40 μl; total binding) or spiroperidol (40 μl; 10 nM; non-specific binding) or test compound (40 μl; at a single concentration of 10^-6 M or at 6 concentrations ranging from 10^-11 -10^-4 M). The ligand was tritiated (S)-sulpiride and the mixture was incubated at 4° C. for 40 minutes before the incubation was terminated by rapid filtration.
The filters were washed with ice-cold Tris-HCl buffer and dried. The filters were punched out in to vials, scintillation fluid added and were left for about 20 hours before being counted by scintillation spectrophotometry. The percentage displacement of specific binding of the tritiated ligand was calculated for the single concentration (10^-6 M) of test compound. Displacement curves were then produced over a range of concentrations for those compounds which displaced ≥50% of specific binding of the tritiated ligand at 10^-6 M. The concentration which gave a 50% inhibition of specific binding (IC50) was obtained from the curve. The inhibition coefficient Ki was then calculated using the formula [formula]
as §1, §2

Row | SMILES | inhibition at 1 µM [1] [%] | % displacement at 10^-6 M, D2-like (column headed Ki (nM) value for D2-like) [2] [%]
1 | CC(=O)Nc1ccc(S(=O)(=O)NCC2CCN(C[C@H]3COc4ccc5[nH]ccc5c4O3)CC2)cc1 [Example 3, (S)-4-acetamido-N-{[1-(2,3-dihydro-7H-1,4-dioxino[2,3-e]indol-2-ylmethyl)piperid-4-yl]methyl}benzenesulphonamide] | 97 | 105
2 | O=S(=O)(NCC1CCN(C[C@H]2COc3ccc4[nH]ccc4c3O2)CC1)c1ccccn1 [Example 2, (S)-N-{[1-(2,3-dihydro-7H-1,4-dioxino[2,3-e]indol-2-ylmethyl)piperid-4-yl]methyl}pyridine-2-sulphonamide] | 99 | 105
3 | O=S(=O)(NCC1CCN(C[C@H]2COc3ccc4scc(Cl)c4c3O2)CC1)c1ccccn1 [Example 1, (S)-N{[1-(9-chloro-2,3-dihydrothieno[3,2-f][1,4]benzodioxin-2-ylmethyl)piperid-4-yl]methyl}pyridine-2-sulphonamide] | 98 | 106

Source: patent US6218405A, “Heteroarylsulfonamide derivatives and pharmaceutical compositions containing them” (KNOLL Aktiengesellschaft, priority 1996, dated 2001)
